The record followed here is patent US10450292B2, “Inhibitors of bacterial RNA polymerase: arylpropanoyl, arylpropenoyl, and arylcyclopropanecarboxyl phloroglucinols” (Rutgers, The State University of New Jersey, priority 2015, dated 2019).

In brackets after ≈: the same amount, converted by molar mass. Some results are limits rather than exact numbers.

For assay [1], the system named is Enterococcus faecalis ATCC 19433. In words: Inhibition of bacterial growth in culture, spiral gradient endpoint assay (MIC). Format: cell-based. The following applies: for MIC: Enterococcus faecalis, ATCC 19433 /, 16 h, read-out: MIC E. faecalis, Mueller-Hinton II agar, 16 h at 37° C. The source says: J. Microbiol. Meths. […] Int. J. Exp. Clin. Chemother. […] Adv.

Assay [2] has as its system Staphylococcus aureus ATCC 12600. The assay is described as above. Conditions: Staphylococcus aureus, ATCC12600, 16 h, read-out: MIC S. aureus 12600, Mueller-Hinton II agar, 16 h at 37° C.
Assay [3] deals with Escherichia coli D21f2tolC. The assay can be described thus: microbe, parasite or virus in culture. The following applies: 16 h, read-out: MIC E. coli D21f2tolC, Mueller-Hinton II agar, 16 h at 37° C.

As for `CCC1=C(O)C(CC)(CC)C(=O)C(C(=O)CCc2ccc(Oc3ccc(F)cc3)cc2C)=C1O` [Example 74, 4,6,6-triethyl-2-(3-(4-(4-fluorophenoxy)-2-methylphenyl)propanoyl)-3,5-dihydroxycyclohexa-2,4-dienone], the MIC stood at 11 µg/mL (≈ 23.6 µM) in assay [1], 1.7 µg/mL (≈ 3.64 µM) in assay [2] and 0.9 µg/mL (≈ 1.93 µM) in assay [3].
`O=C(CCc1ccc(Oc2ccc(F)cc2)cc1C(F)(F)F)c1c(O)cc(O)c(Cl)c1O` [Example 49, 1-(3-chloro-2,4,6-trihydroxyphenyl)-3-(4-(4-fluorophenoxy)-2-(trifluoromethyl)phenyl)propan-1-one]: the MIC in assay [1], in assay [2] and in assay [3] was 12 µg/mL (≈ 25.5 µM) in each case.
With `O=C(/C=C/c1ccc(Oc2ccccc2)cc1)c1c(O)cc(O)cc1O` [Example 8, (E)-3-(4-phenoxyphenyl)-1-(2,4,6-trihydroxyphenyl)prop-2-en-1-one], the MIC came to 31 µg/mL (≈ 89 µM) in assay [1], 6.5 µg/mL (≈ 18.7 µM) in assay [2] and 3.8 µg/mL (≈ 10.9 µM) in assay [3].
For `Cc1cc(Oc2ccc(Cl)cc2)ccc1/C=C/C(=O)c1c(O)cc(O)cc1O` [Example 18, (E)-3-(4-(4-chlorophenoxy)-2-methylphenyl)-1-(2,4,6-trihydroxyphenyl)prop-2-en-1-one], in that order: 2.4 µg/mL (≈ 6.05 µM), 1.3 µg/mL (≈ 3.28 µM) and 1.1 µg/mL (≈ 2.77 µM).
As for `O=C(CCc1ccc(Oc2ccc(F)cc2)cc1)c1c(O)cc(O)c(Cl)c1O` [Example 45, 1-(3-chloro-2,4,6-trihydroxyphenyl)-3-(4-(4-fluorophenoxy)phenyl)propan-1-one], the MIC was 11 µg/mL (≈ 27.3 µM) in assay [1], 9.6 µg/mL (≈ 23.8 µM) in assay [2] and 5.2 µg/mL (≈ 12.9 µM) in assay [3].
As for `CCC1=C(O)C(CC)(CC)C(=O)C(C(=O)C2CC2c2ccc(Cl)cc2)=C1O` (centres unmarked) [Example 81, 2-(2-(4-chlorophenyl)cyclopropanecarbonyl)-4,6,6-triethyl-3,5-dihydroxycyclohexa-2,4-dienone], the “MIC E. faecalis H37Rv” value in assay [1] (Mueller-Hinton II agar, 16 h at 37° C.) is 11 µg/mL (≈ 28.3 µM). Further, the MIC in assay [2] was 4.5 µg/mL (≈ 11.6 µM); in assay [3], 2.2 µg/mL (≈ 5.66 µM).
On to `Cc1cc(Oc2ccc(Cl)cc2)ccc1C1CC1C(=O)c1c(O)cc(O)cc1O` (centres unmarked) [Example 26, (2-(4-(4-chlorophenoxy)-2-methylphenyl)cyclopropyl)(2,4,6-trihydroxyphenyl)methanone], for which the values for the MIC in assay [1], in assay [2] and in assay [3] were 2.1 µg/mL (≈ 5.11 µM), 1.4 µg/mL (≈ 3.41 µM) and 1.4 µg/mL (≈ 3.41 µM), respectively.
With `CCCC1=C(O)C(CCC)(CCC)C(=O)C(C(=O)C2CC2c2ccc(Oc3ccc(F)cc3)cc2C)=C1O` (centres unmarked) [Example 71, 2-(2-(4-(4-fluorophenoxy)-2-methylphenyl)cyclopropanecarbonyl)-3,5-dihydroxy-4,6,6-tripropylcyclohexa-2,4-dienone], the results for the MIC in assay [1], in assay [2] and in assay [3] were 2.1 µg/mL (≈ 4.03 µM), 0.9 µg/mL (≈ 1.73 µM) and 2.3 µg/mL (≈ 4.42 µM), respectively.
For the molecule `O=C(/C=C/c1ccc(Oc2ccc(F)cc2)cc1)c1c(O)cc(O)cc1O` [Example 11, (E)-3-(4-(4-fluorophenoxy)phenyl)-1-(2,4,6-trihydroxyphenyl)prop-2-en-1-one], the MIC is greater than 40 µg/mL in assay [1], 17 µg/mL (≈ 46.4 µM) in assay [2] and 5.9 µg/mL (≈ 16.1 µM) in assay [3].
For `CC1=C(O)C(C)(C)C(=O)C(C(=O)C2CC2c2ccc(Cl)cc2C(F)(F)F)=C1O` (centres unmarked) [Example 76, 2-(2-(4-chloro-2-(trifluoromethyl)phenyl)cyclopropanecarbonyl)-3,5-dihydroxy-4,6,6-trimethylcyclohexa-2,4-dienone], in that order: greater than 40 µg/mL, 12 µg/mL (≈ 28.9 µM) and 3.1 µg/mL (≈ 7.47 µM).
For `Cc1cc(Oc2ccccc2)ccc1C1CC1C(=O)c1c(O)cc(O)cc1O` (centres unmarked) [Example 39, (2-(2-methyl-4-phenoxyphenyl)cyclopropyl)(2,4,6-trihydroxyphenyl)methanone], in that order: 4.1 µg/mL (≈ 10.9 µM), 3.6 µg/mL (≈ 9.56 µM) and 1.6 µg/mL (≈ 4.25 µM).
The corresponding values for `Cc1cc(Oc2ccc(F)cc2)ccc1C1CC1C(=O)c1c(O)cc(O)c(Cl)c1O` (centres unmarked) [Example 52, (3-chloro-2,4,6-trihydroxyphenyl)(2-(4-(4-fluorophenoxy)-2-methylphenyl)cyclopropyl)methanone] are 5.2 µg/mL (≈ 12.1 µM), 3.2 µg/mL (≈ 7.46 µM) and 7.5 µg/mL (≈ 17.5 µM).
On to `O=C(c1c(O)cc(O)cc1O)C1CC1c1ccc(Cl)cc1C(F)(F)F` (centres unmarked) [Example 47, (2-(4-chloro-2-(trifluoromethyl)phenyl)cyclopropyl)(2,4,6-trihydroxyphenyl)methanone], for which the values for the MIC in assay [1], in assay [2] and in assay [3] were 9.6 µg/mL (≈ 25.8 µM), 9.6 µg/mL (≈ 25.8 µM) and 4.8 µg/mL (≈ 12.9 µM), respectively.
Take `Cc1cc(Oc2ccc(F)cc2)ccc1C1CC1C(=O)c1c(O)cc(O)cc1O` (centres unmarked) [Example 36, (2-(4-(4-fluorophenoxy)-2-methylphenyl)cyclopropyl)(2,4,6-trihydroxyphenyl)methanone]: the MIC in assay [1] was 4.4 µg/mL (≈ 11.2 µM); in assay [2] it was 2.4 µg/mL (≈ 6.09 µM); in assay [3] it was 1.7 µg/mL (≈ 4.31 µM).
Turning to `CCCC1=C(O)C(CCC)(CCC)C(=O)C(C(=O)CCc2ccc(Oc3ccc(F)cc3)cc2C(F)(F)F)=C1O` [Example 68, 2-(3-(4-(4-fluorophenoxy)-2-(trifluoromethyl)phenyl)propanoyl)-3,5-dihydroxy-4,6,6-tripropylcyclohexa-2,4-dienone], the MIC was 1.3 µg/mL (≈ 2.31 µM) in assay [1], 0.6 µg/mL (≈ 1.07 µM) in assay [2] and 1.5 µg/mL (≈ 2.67 µM) in assay [3].
With `O=C(c1c(O)cc(O)cc1O)C1CC1c1ccc(Oc2ccccc2)cc1` (centres unmarked) [Example 22, (2-(4-phenoxyphenyl)cyclopropyl)(2,4,6-trihydroxyphenyl) methanone], the figures for the MIC in assay [1], in assay [2] and in assay [3] were 1.3 µg/mL (≈ 3.59 µM), 1 µg/mL (≈ 2.76 µM) and 0.49 µg/mL (≈ 1.35 µM), respectively.
For `Cc1cc(Oc2ccc(F)cc2)ccc1CCC(=O)c1c(O)cc(O)c(Cl)c1O` [Example 50, 1-(3-chloro-2,4,6-trihydroxyphenyl)-3-(4-(4-fluorophenoxy)-2-methylphenyl)propan-1-one], in that order: 18 µg/mL (≈ 43.2 µM), 16 µg/mL (≈ 38.4 µM) and 19 µg/mL (≈ 45.6 µM).
Regarding `CCC1=C(O)C(CC)(CC)C(=O)C(C(=O)C2CC2c2ccc(Cl)cc2C(F)(F)F)=C1O` (centres unmarked) [Example 84, 2-(2-(4-chloro-2-(trifluoromethyl)phenyl)cyclopropanecarbonyl)-4,6,6-triethyl-3,5-dihydroxycyclohexa-2,4-dienone], the MIC in assay [1] stood at 2.1 µg/mL (≈ 4.6 µM); in assay [2] it was 1.3 µg/mL (≈ 2.85 µM); in assay [3] it was 0.44 µg/mL (≈ 0.963 µM).
The corresponding values for `O=C(c1c(O)cc(O)cc1O)C1CC1c1ccc(Oc2ccc(F)cc2)cc1` (centres unmarked) [Example 12, (2-(4-(4-fluorophenoxy)phenyl)cyclopropyl)(2,4,6-trihydroxyphenyl) methanone] are 4 µg/mL (≈ 10.5 µM), 3.1 µg/mL (≈ 8.15 µM) and 1.5 µg/mL (≈ 3.94 µM).
For the molecule `O=C(c1c(O)cc(O)cc1O)C1CC1c1ccc(Oc2ccc(Cl)cc2Cl)cc1` (centres unmarked) [Example 29, (2-(4-(2,4-dichlorophenoxy)phenyl)cyclopropyl)(2,4,6-trihydroxyphenyl) methanone], the MIC in assay [1] stood at 2.4 µg/mL (≈ 5.56 µM); in assay [2], 1.5 µg/mL (≈ 3.48 µM); in assay [3], 1.5 µg/mL (≈ 3.48 µM).
Take `CC(Cc1ccc(Cl)cc1)C(=O)c1c(O)cc(O)cc1O` (racemic) [Example 30, 3-(4-chlorophenyl)-2-methyl-1-(2,4,6-trihydroxyphenyl)propan-1-one]: the MIC was 17 µg/mL (≈ 55.4 µM) in assay [1], 14 µg/mL (≈ 45.6 µM) in assay [2] and 6.5 µg/mL (≈ 21.2 µM) in assay [3].
Regarding `O=C(CCc1ccc(Oc2ccc(F)cc2)cc1C(F)(F)F)c1c(O)cc(O)cc1O` [Example 37, 3-(4-(4-fluorophenoxy)-2-(trifluoromethyl)phenyl)-1-(2,4,6-trihydroxyphenyl)propan-1-one], the MIC in assay [1] is 4.4 µg/mL (≈ 10.1 µM); in assay [2] it was 3.5 µg/mL (≈ 8.02 µM); in assay [3], 2.4 µg/mL (≈ 5.5 µM).
For `Cc1cc(Oc2ccccc2)ccc1/C=C/C(=O)c1c(O)cc(O)c(Cl)c1O` [Example 40, (E)-1-(3-chloro-2,4,6-trihydroxyphenyl)-3-(2-methyl-4-phenoxyphenyl)prop-2-en-1-one], the MIC in assay [1] was greater than 40 µg/mL; in assay [2], greater than 40 µg/mL; in assay [3] it was 9.4 µg/mL (≈ 23.7 µM).
As to `O=C(CCc1ccc(Oc2cccc(Cl)c2)cc1)c1c(O)cc(O)cc1O` [Example 3, 3-(4-(3-chlorophenoxy)phenyl)-1-(2,4,6-trihydroxyphenyl)propan-1-one], the MIC in assay [1] worked out at 3.7 µg/mL (≈ 9.62 µM); in assay [2], 1.9 µg/mL (≈ 4.94 µM); in assay [3], 1.9 µg/mL (≈ 4.94 µM).
Consider `CCC1=C(O)C(CC)(CC)C(=O)C(C(=O)CCc2ccc(Oc3ccc(F)cc3)cc2)=C1O` [Example 61, 4,6,6-triethyl-2-(3-(4-(4-fluorophenoxy)phenyl)propanoyl)-3,5-dihydroxycyclohexa-2,4-dienone], for which the MIC in assay [1] was 0.44 µg/mL (≈ 0.972 µM); in assay [2], 0.56 µg/mL (≈ 1.24 µM); in assay [3], 0.24 µg/mL (≈ 0.53 µM).
For `CC1=C(O)C(C)(C)C(=O)C(C(=O)C2CC2c2ccc(Oc3ccc(F)cc3)cc2C(F)(F)F)=C1O` (centres unmarked) [Example 85, 2-(2-(4-(4-fluorophenoxy)-2-(trifluoromethyl)phenyl)cyclopropanecarbonyl)-3,5-dihydroxy-4,6,6-trimethylcyclohexa-2,4-dienone], in that order: greater than 40 µg/mL, 12 µg/mL (≈ 24.5 µM) and 4 µg/mL (≈ 8.16 µM).
For `O=C(/C=C/c1ccc(Oc2ccccc2)cc1C(F)(F)F)c1c(O)cc(O)cc1O` [Example 15, (E)-3-(4-phenoxy-2-(trifluoromethyl)phenyl)-1-(2,4,6-trihydroxyphenyl)prop-2-en-1-one], the MIC in assay [1] was determined as 3.6 µg/mL (≈ 8.65 µM); in assay [2] it was 3.2 µg/mL (≈ 7.69 µM); in assay [3], 1.8 µg/mL (≈ 4.32 µM).
Consider `CCCc1c(O)cc(O)c(C(=O)/C=C/c2ccc(Oc3ccc(F)cc3)cc2)c1O` [Example 67, (E)-3-(4-(4-fluorophenoxy)phenyl)-1-(2,4,6-trihydroxy-3-propylphenyl)prop-2-en-1-one], for which the MIC was 0.55 µg/mL (≈ 1.35 µM) in assay [1] and 0.72 µg/mL (≈ 1.76 µM) in assay [3].
